{"source": "patent US11142529B2", "about": "(priority 2013, dated 2021)", "key": {"GABAA receptors (α5β2γ2)": {"target": "T1, GABAA receptors (α5β2γ2) (Homo sapiens, UniProt P18507+P31644)", "T1 construct": "expressed in transfected cells; host or cells: oocytes injected with a mix of alpha, beta and gamma cDNA (1:1:10 by weight)", "T1 sequence (P31644 32-462)": "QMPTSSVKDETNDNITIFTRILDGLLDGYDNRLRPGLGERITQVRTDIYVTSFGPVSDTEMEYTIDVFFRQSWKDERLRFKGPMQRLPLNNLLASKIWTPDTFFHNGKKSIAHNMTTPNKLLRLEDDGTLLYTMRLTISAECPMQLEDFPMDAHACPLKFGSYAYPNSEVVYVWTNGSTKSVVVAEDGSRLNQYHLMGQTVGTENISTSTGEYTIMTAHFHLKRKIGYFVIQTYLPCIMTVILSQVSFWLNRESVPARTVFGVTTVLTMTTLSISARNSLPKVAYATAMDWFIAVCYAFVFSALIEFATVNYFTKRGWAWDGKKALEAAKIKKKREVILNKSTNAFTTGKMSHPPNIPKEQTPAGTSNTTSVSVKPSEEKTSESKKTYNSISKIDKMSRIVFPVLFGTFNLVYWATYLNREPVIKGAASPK", "T1 sequence (P47870 25-512 partner limits assumed)": "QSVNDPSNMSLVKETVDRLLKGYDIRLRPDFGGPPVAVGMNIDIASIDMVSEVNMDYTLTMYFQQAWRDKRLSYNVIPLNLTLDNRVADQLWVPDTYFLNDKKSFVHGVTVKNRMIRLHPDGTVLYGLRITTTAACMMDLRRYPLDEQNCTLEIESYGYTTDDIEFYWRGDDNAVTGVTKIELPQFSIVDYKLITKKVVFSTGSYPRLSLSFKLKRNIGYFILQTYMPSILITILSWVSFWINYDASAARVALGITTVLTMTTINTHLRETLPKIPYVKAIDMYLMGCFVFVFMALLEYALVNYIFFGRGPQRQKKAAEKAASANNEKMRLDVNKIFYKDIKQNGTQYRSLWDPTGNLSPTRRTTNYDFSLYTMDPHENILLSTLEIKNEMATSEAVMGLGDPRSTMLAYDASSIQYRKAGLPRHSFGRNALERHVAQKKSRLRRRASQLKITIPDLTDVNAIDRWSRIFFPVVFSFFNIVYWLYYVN", "T1 sequence (P18507 40-475)": "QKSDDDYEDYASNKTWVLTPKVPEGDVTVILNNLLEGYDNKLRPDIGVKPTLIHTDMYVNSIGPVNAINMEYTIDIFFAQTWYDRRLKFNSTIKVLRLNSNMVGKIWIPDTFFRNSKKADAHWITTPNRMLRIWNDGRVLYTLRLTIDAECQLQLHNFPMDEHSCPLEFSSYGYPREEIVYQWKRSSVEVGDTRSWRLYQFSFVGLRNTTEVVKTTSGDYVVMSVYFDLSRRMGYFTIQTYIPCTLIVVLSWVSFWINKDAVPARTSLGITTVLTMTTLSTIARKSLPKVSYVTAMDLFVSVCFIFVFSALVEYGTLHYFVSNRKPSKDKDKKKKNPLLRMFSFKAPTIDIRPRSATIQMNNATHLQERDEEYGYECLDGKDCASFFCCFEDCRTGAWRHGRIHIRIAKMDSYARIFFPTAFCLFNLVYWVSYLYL", "assay": "Positive allosteric modulator activity, potentiation of EC20 GABA current in oocytes", "format": "cell-based", "settings": "read-out: GABA α5 functional potentiation", "method": "On day 1, 1 ng/32 nL of GABAA […] cDNA was injected into one oocyte. Test starts on day 2. The cDNA injected to the oocytes was a mix of alpha, beta and gamma, their ratio is 1:1:10 (by weight) and the total weight of the mixed 3 subunits to be injected in one oocyte was 1 ng in 32 nl volume. The injected oocytes can also be tested on day 3. In such case, the cDNA amount injected to the oocytes should be reduced by 20%.\n1). 8 oocytes were placed in 8 chambers of OpusXpress and superfused with Modified Barth's Saline (MBS) at 3 mL/min. Glass electrodes back-filled with 3M KCl (0.5-3 megaohms) were used.\n3). […] Oocytes were washed with MBS for 5-10 min.\n2). […] Divide Itest by IGABA to obtain potentiation (%).\n3). Discard all tested oocytes, new oocytes were used and the above steps 1) and 2) were repeated to test second concentration of the same compound. Each oocyte was used for only one concentration test for a single test compound. The steps were repeated for other test compounds."}, "α5β3γ2 GABAA receptors": {"target": "T2, α5β3γ2 GABAA receptors (Homo sapiens, UniProt P18507+P31644)", "T2 construct": "membranes", "T2 sequence (P31644 32-462)": "as the sequence (P31644 32-462) above", "T2 sequence (P28472 26-473 partner)": "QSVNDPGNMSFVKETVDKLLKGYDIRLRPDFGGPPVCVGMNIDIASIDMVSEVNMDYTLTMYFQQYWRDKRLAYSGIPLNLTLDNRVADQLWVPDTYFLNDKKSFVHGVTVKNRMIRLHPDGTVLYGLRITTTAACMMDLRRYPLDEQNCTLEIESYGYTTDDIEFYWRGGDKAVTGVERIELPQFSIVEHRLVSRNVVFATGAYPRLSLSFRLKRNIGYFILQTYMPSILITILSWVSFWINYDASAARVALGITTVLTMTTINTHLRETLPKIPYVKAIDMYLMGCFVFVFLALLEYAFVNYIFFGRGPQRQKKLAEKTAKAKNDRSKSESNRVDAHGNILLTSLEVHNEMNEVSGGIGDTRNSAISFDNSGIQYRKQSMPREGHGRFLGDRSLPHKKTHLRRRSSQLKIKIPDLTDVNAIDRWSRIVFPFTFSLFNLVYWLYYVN", "T2 sequence (P18507 40-475)": "as the sequence (P18507 40-475) above", "assay": "Binding activity of test compounds on GABAAR ([3H]Ro15-1788 inhibition, Ltk cell membranes)", "method": "The binding was performed on Ltk cells stably expressing GABAA receptors: α1β1γ2, α2β3γ2, α3β3γ2 and α5β3γ2 (provided by Merck Co., NJ, USA). Cells were seeded in 100 mm culture plates in DMEM/F12 medium containing 10% serum and antibiotics in 5% C02 and allowed to grow for 1-2 days. GABAAR expression was then induced by dexamethasone as follows: 0.5 μM for 1 day for α5 containing and 2 μM for 3 days for α1, α2 and α3 containing GABAARs. After induction, cells were collected by scraping into Dulbecco's Phosphate buffered saline (DPBS, pH 7.4, Invitrogen, Carlsbad, Calif., USA) and centrifuged at 150×g for 10 min. The pellet was washed twice by re-suspension and centrifugation. The cell pellets from at least 5 different preps were combined, suspended in the binding assay buffer (50 mM KH2PO4; 1 mM EDTA; 0.2 M KCl, pH 7.4) and membranes prepared by sonication (3-5 times, 30 sec) using Branson Sonifier 150 (G.Heinmann, Germany). Protein content was determined using BCA assay (Bio-Rad Labs, Reinach, Switzerland) with Bovine Serum Albumin (Sigma Aldrich, St. Louis, Mo., USA) as the standard. Aliquots were prepared and stored at −20° C. for further use in binding assays.\nSaturation binding curves were obtained by incubating membranes with increasing concentrations (0.01-8 nM) of [^3H]Ro15-1788 (Flumazepil, 75-85 Ci/mmol, PerkinElmer, MA, USA), with nonspecific binding measured in the presence of 10 μM diazepam.\nAll binding assays were performed for 1 h at 4° C. in assay buffer. The total assay volume was 0.5 ml containing 0.2 mg/ml protein for α5 and 0.4 mg/ml for α1, α2, and α3 containing GABAAR membranes. Incubations were terminated by filtration through GF/B filters using a 24-Cell Harvestor (Brandel, Gaithersburg, Md., USA) followed by 3 washes with ice-cold assay buffer. Filters were transferred to scintillation vials, 5 ml scintillation liquid added, vortex-mixed and kept in dark. Next day, radioactivity was obtained using a scintillation counter (Beckman Coulter, Brea, Calif., USA). All assays were performed in triplicate.\nSaturation and inhibition curves were obtained using GraphPad Prism software (GraphPad Software, Inc., CA, USA)."}}}
{"smiles": "CCOC(=O)c1ncn2c1Cc1c(Cc3cccnc3)nnn1-c1cc(C)ccc1-2", "note": "[Compound 111]", "values": [{"measurement": "activation at 0.1 µM", "setting": "GABAA receptors (α5β2γ2)", "value": "20 to 49", "unit": "%"}, {"measurement": "Ki", "setting": "α5β3γ2 GABAA receptors", "value": "< 99", "unit": "nM"}]}
{"smiles": "Cc1nnn2c1Cc1c(C(=O)OC(C)C)ncn1-c1ccc(F)cc1-2", "note": "[Compound 112]", "values": [{"measurement": "Ki", "setting": "α5β3γ2 GABAA receptors", "value": "< 99", "unit": "nM"}]}
{"smiles": "Cc1nnn2c1Cc1c(C(=O)OCC(C)(C)C)ncn1-c1ccc(F)cc1-2", "note": "[Compound 113]", "values": [{"measurement": "activation at 0.1 µM", "setting": "GABAA receptors (α5β2γ2)", "value": "> 50", "unit": "%"}]}
{"smiles": "Cc1nnn2c1Cc1c(C(=O)OCC(F)(F)F)ncn1-c1ccc(F)cc1-2", "note": "[Compound 114]", "values": [{"measurement": "activation at 0.1 µM", "setting": "GABAA receptors (α5β2γ2)", "value": "> 50", "unit": "%"}, {"measurement": "Ki", "setting": "α5β3γ2 GABAA receptors", "value": "< 99", "unit": "nM"}]}
{"smiles": "COc1ccc2c(c1)-c1nnc(COc3ccccc3)n1Cc1c(-c3nc(C)no3)ncn1-2", "note": "[Compound 118]", "values": [{"measurement": "activation at 0.1 µM", "setting": "GABAA receptors (α5β2γ2)", "value": "20 to 49", "unit": "%"}, {"measurement": "Ki", "setting": "α5β3γ2 GABAA receptors", "value": "< 99", "unit": "nM"}]}
{"smiles": "COc1ccc2c(c1)-c1nnc(COc3ccccc3)n1Cc1c(C(=O)OC(C)C)ncn1-2", "note": "[Compound 120]", "values": [{"measurement": "activation at 0.1 µM", "setting": "GABAA receptors (α5β2γ2)", "value": "20 to 49", "unit": "%"}, {"measurement": "Ki", "setting": "α5β3γ2 GABAA receptors", "value": "< 99", "unit": "nM"}]}
{"smiles": "COc1ccc2c(c1)-c1nnc(COc3ccccc3)n1Cc1c(C#N)ncn1-2", "note": "[Compound 122]", "values": [{"measurement": "Ki", "setting": "α5β3γ2 GABAA receptors", "value": "< 99", "unit": "nM"}]}
{"smiles": "Cc1noc(-c2ncn3c2Cc2c(C)nnn2-c2ccccc2-3)n1", "note": "[Compound 126]", "values": [{"measurement": "activation at 0.1 µM", "setting": "GABAA receptors (α5β2γ2)", "value": "20 to 49", "unit": "%"}, {"measurement": "Ki", "setting": "α5β3γ2 GABAA receptors", "value": "< 99", "unit": "nM"}]}
{"smiles": "Cc1nc(-c2ncn3c2Cc2c(C)nnn2-c2ccccc2-3)no1", "note": "[Compound 127]", "values": [{"measurement": "activation at 0.1 µM", "setting": "GABAA receptors (α5β2γ2)", "value": "20 to 49", "unit": "%"}, {"measurement": "Ki", "setting": "α5β3γ2 GABAA receptors", "value": "< 99", "unit": "nM"}]}
{"smiles": "COCc1nnc2n1Cc1c(-c3nc(C)no3)ncn1-c1ccc(OC)cc1-2", "note": "[Compound 128]", "values": [{"measurement": "activation at 0.1 µM", "setting": "GABAA receptors (α5β2γ2)", "value": "20 to 49", "unit": "%"}, {"measurement": "Ki", "setting": "α5β3γ2 GABAA receptors", "value": "< 99", "unit": "nM"}]}
{"smiles": "COCc1nnc2n1Cc1c(Br)ncn1-c1ccc(OC)cc1-2", "note": "[Compound 129]", "values": [{"measurement": "Ki", "setting": "α5β3γ2 GABAA receptors", "value": "< 99", "unit": "nM"}]}
{"smiles": "COCc1nnc2n1Cc1c(-c3nc(C(C)C)no3)ncn1-c1ccc(OC)cc1-2", "note": "[Compound 130]", "values": [{"measurement": "activation at 0.1 µM", "setting": "GABAA receptors (α5β2γ2)", "value": "20 to 49", "unit": "%"}, {"measurement": "Ki", "setting": "α5β3γ2 GABAA receptors", "value": "< 99", "unit": "nM"}]}
{"smiles": "Cc1nnn2c1Cc1c(-c3nc(C(C)C)no3)ncn1-c1ccccc1-2", "note": "[Compound 132]", "values": [{"measurement": "activation at 0.1 µM", "setting": "GABAA receptors (α5β2γ2)", "value": "20 to 49", "unit": "%"}, {"measurement": "Ki", "setting": "α5β3γ2 GABAA receptors", "value": "< 99", "unit": "nM"}]}
{"smiles": "Cc1nnn2c1Cc1c(-c3noc(C(C)C)n3)ncn1-c1ccccc1-2", "note": "[Compound 133]", "values": [{"measurement": "Ki", "setting": "α5β3γ2 GABAA receptors", "value": "< 99", "unit": "nM"}]}
{"smiles": "CCOC(=O)c1ncn2c1Cn1c(COc3ccccc3)nnc1-c1cc(F)ccc1-2", "note": "[Compound 137]", "values": [{"measurement": "activation at 0.1 µM", "setting": "GABAA receptors (α5β2γ2)", "value": "20 to 49", "unit": "%"}, {"measurement": "Ki", "setting": "α5β3γ2 GABAA receptors", "value": "< 99", "unit": "nM"}]}
{"smiles": "Cc1nc(-c2ncn3c2Cc2c(C)nnn2-c2cc(F)ccc2-3)no1", "note": "[Compound 145]", "values": [{"measurement": "activation at 0.1 µM", "setting": "GABAA receptors (α5β2γ2)", "value": "> 50", "unit": "%"}, {"measurement": "Ki", "setting": "α5β3γ2 GABAA receptors", "value": "< 99", "unit": "nM"}]}
{"smiles": "CC(C)c1nc(-c2ncn3c2Cn2c(COc4ccccc4)nnc2-c2cc(F)ccc2-3)no1", "note": "[Compound 147]", "values": [{"measurement": "activation at 0.1 µM", "setting": "GABAA receptors (α5β2γ2)", "value": "20 to 49", "unit": "%"}, {"measurement": "Ki", "setting": "α5β3γ2 GABAA receptors", "value": "< 99", "unit": "nM"}]}
{"smiles": "Cc1nc(-c2ncn3c2Cn2c(COc4ccccc4)nnc2-c2cc(F)ccc2-3)no1", "note": "[Compound 148]", "values": [{"measurement": "activation at 0.1 µM", "setting": "GABAA receptors (α5β2γ2)", "value": "20 to 49", "unit": "%"}, {"measurement": "Ki", "setting": "α5β3γ2 GABAA receptors", "value": "< 99", "unit": "nM"}]}
{"smiles": "Cc1nnn2c1Cc1c(-c3noc(C(F)(F)F)n3)ncn1-c1ccc(F)cc1-2", "note": "[Compound 150]", "values": [{"measurement": "Ki", "setting": "α5β3γ2 GABAA receptors", "value": "< 99", "unit": "nM"}]}
{"smiles": "Cc1nnn2c1Cc1c(-c3ncon3)ncn1-c1ccc(F)cc1-2", "note": "[Compound 151]", "values": [{"measurement": "Ki", "setting": "α5β3γ2 GABAA receptors", "value": "< 99", "unit": "nM"}]}
{"smiles": "CC(C)OC(=O)c1ncn2c1Cn1c(COc3ccccc3)nnc1-c1cc(F)ccc1-2", "note": "[Compound 156]", "values": [{"measurement": "Ki", "setting": "α5β3γ2 GABAA receptors", "value": "< 99", "unit": "nM"}]}
{"smiles": "N#Cc1ncn2c1Cn1c(COc3ccccc3)nnc1-c1cc(F)ccc1-2", "note": "[Compound 157]", "values": [{"measurement": "Ki", "setting": "α5β3γ2 GABAA receptors", "value": "< 99", "unit": "nM"}]}
{"smiles": "Fc1ccc2c(c1)-c1nnc(COc3ccccc3)n1Cc1c(-c3noc(C(F)(F)F)n3)ncn1-2", "note": "[Compound 159]", "values": [{"measurement": "Ki", "setting": "α5β3γ2 GABAA receptors", "value": "< 99", "unit": "nM"}]}
{"smiles": "C#Cc1ncn2c1Cc1c(C)nnn1-c1ccccc1-2", "note": "[Compound 161]", "values": [{"measurement": "Ki", "setting": "α5β3γ2 GABAA receptors", "value": "< 99", "unit": "nM"}]}
{"smiles": "COCc1nnc2n1Cc1c(-c3noc(C)n3)ncn1-c1ccc(OC)cc1-2", "note": "[Compound 164]", "values": [{"measurement": "Ki", "setting": "α5β3γ2 GABAA receptors", "value": "< 99", "unit": "nM"}]}
{"smiles": "COc1ccc2c(c1)-c1nnc(COCc3ccccc3)n1Cc1c(-c3noc(C)n3)ncn1-2", "note": "[Compound 165]", "values": [{"measurement": "Ki", "setting": "α5β3γ2 GABAA receptors", "value": "< 99", "unit": "nM"}]}
{"smiles": "COc1ccc2c(c1)-c1nnc(COCc3ccccc3)n1Cc1c(C#N)ncn1-2", "note": "[Compound 166]", "values": [{"measurement": "Ki", "setting": "α5β3γ2 GABAA receptors", "value": "< 99", "unit": "nM"}]}
{"smiles": "COc1ccc2c(c1)-n1nnc(C)c1Cc1c(-c3nc(C)no3)ncn1-2", "note": "[Compound 167]", "values": [{"measurement": "Ki", "setting": "α5β3γ2 GABAA receptors", "value": "< 99", "unit": "nM"}]}
{"smiles": "COc1ccc2c(c1)-n1nnc(COc3cccc(F)c3)c1Cc1c(-c3noc(C)n3)ncn1-2", "note": "[Compound 168]", "values": [{"measurement": "Ki", "setting": "α5β3γ2 GABAA receptors", "value": "< 99", "unit": "nM"}]}
{"smiles": "COCc1nnc2n1Cc1c(-c3noc(C(C)C)n3)ncn1-c1ccc(OC)cc1-2", "note": "[Compound 169]", "values": [{"measurement": "Ki", "setting": "α5β3γ2 GABAA receptors", "value": "< 99", "unit": "nM"}]}
